Source: ChEMBL document CHEMBL1146936, “Synthesis and evaluation of arylaminoethyl amides as noncovalent inhibitors of cathepsin S. Part 3: heterocyclic P3” (Bioorg Med Chem Lett, 2006)

Legend:
[1] = Half life in Wistar rat at 3 mg/kg, iv; assay type: ADME, organism-based; set-up: dose 3 mg/kg, route intravenous; details: in vivo
[2] = AUC in Wistar rat at 10 mg/kg, po; assay type: ADME, organism-based; set-up: dose 10 mg/kg, route oral; details: plasma
[3] = Clearance in Wistar rat at 3 mg/kg, iv; assay type: ADME, organism-based; set-up: dose 3 mg/kg, route intravenous; details: in vivo
[4] = Oral bioavailability in Wistar rat at 10 mg/kg, po; assay type: ADME, organism-based; details: in vivo
[5] = Volume of distribution in Wistar rat at 3 mg/kg, iv; assay type: ADME, organism-based; set-up: dose 3 mg/kg, route intravenous; details: in vivo, read-out: Vss
Liver microsomes = experiment: Metabolic stability in Wistar rat liver microsome; assay type: ADME
[6] = Cmax in Wistar rat at 10 mg/kg, po; assay type: ADME, organism-based; set-up: dose 10 mg/kg, route oral; details: in vivo
Rattus norvegicus = experiment: Plasma concentration in Wistar rat at 10 mg/kg, po; assay type: ADME, organism-based; set-up: dose 10 mg/kg, route oral; details: in vivo
[7] = Half life in Wistar rat at 10 mg/kg, po; assay type: ADME, organism-based; set-up: dose 10 mg/kg, route oral; details: in vivo

Compound	half-life [1]	AUC [2]	clearance [3]	bioavailability [4]	Vd [5]	Stability (Liver microsomes)	Cmax [6]	Cp (Rattus norvegicus)	half-life [7]	concentration (Rattus norvegicus)
COc1ccc(NCCNC(=O)[C@H](CC2CCCCC2)Nc2nc3ccccc3o2)cc1	4.8 h	15 ng·h/mL	11.4 mL/min/kg	< 1%	1.63 L/kg	< 5%	12 nM	Not Active	5.3 h	
CCOC(=O)C[C@@H](CN1CCc2cc(F)ccc21)NC(=O)[C@H](CC1CCCCC1)Nc1nc2ccc(Cl)cc2o1		1580 ng·h/mL		22%			1100 nM	Not Active	1 h	
O=C(O)C[C@@H](CN1CCc2cc(F)ccc21)NC(=O)[C@H](CC1CCCCC1)Nc1nc2ccc(Cl)cc2o1	1 h		23.2 mL/min/kg		0.74 L/kg					> 1000 nM
C[C@@H](CN1CC(C)(C)c2cc(F)ccc21)NC(=O)[C@H](CC1CCCCC1)Nc1nc2cccc(Cl)c2o1	8.3 h	2400 ng·h/mL	10.1 mL/min/kg	15%	0.9 L/kg		1260 nM		5.1 h	

Now from value to compound:

half-life [1]	AUC [2]	clearance [3]	bioavailability [4]	Vd [5]	Stability (Liver microsomes)	Cmax [6]	Cp (Rattus norvegicus)	half-life [7]	concentration (Rattus norvegicus)	Compound
2.3 h	1080 ng·h/mL	33.1 mL/min/kg	24%	2.57 L/kg		703 nM		1.1 h		C[C@@H](CN1CCc2cc(F)ccc21)NC(=O)[C@H](CC1CCCCC1)Nc1nc2cccc(Cl)c2o1
	900 ng·h/mL							4.1 h		C[C@@H](CN1c2ccc(F)cc2CC1(C)C)NC(=O)[C@H](CC1CCCCC1)Nc1nc2cccc(Cl)c2o1
